This note sets out measurements from US20260092074A1, “Annelated Pyridines as Steroidogenesis Inhibitors, Preparation Method and Use Thereof” (Guangzhou Vinnocent Pharmaceutical Limited, priority 2022, published 2026).

One assay addresses T1, human CYP11B1 (Homo sapiens, UniProt P15538).
T1 construct: expressed in transfected cells
T1 sequence (P15538 25-503): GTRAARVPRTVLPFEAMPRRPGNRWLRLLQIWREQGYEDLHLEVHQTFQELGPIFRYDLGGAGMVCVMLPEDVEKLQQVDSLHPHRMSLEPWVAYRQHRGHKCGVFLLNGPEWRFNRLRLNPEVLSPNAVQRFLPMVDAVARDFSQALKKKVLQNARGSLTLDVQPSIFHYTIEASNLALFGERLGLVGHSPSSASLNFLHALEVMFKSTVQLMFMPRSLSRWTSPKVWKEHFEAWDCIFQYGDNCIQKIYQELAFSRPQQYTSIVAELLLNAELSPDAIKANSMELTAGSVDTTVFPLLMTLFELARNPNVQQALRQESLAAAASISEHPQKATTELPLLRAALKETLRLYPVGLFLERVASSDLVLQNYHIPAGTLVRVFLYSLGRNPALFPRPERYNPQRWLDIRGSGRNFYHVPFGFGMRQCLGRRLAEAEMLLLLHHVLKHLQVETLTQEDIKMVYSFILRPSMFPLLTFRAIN
Description: Inhibition of hCYP11B1 in transfected V79 cells. The class given is cell-based. The note with it: hamster V79 cells expressing human CYP11B1; substrate 11-deoxycortisol 200 nM. A digest of the protocol:
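Reactions started with 200 nM 11-deoxycortisol, ran for 30 min and were stopped with ethyl acetate, after a 2 h compound preincubation. The host was stably transfected V79 hamster cells carrying human CYP11B1 plus rat P450 reductase. Percent inhibition, from LC-MS/MS or HPLC (260 nm) quantitation of substrate and product, gave the IC50.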

In the next assay the target is T2, human CYP11B2 (Homo sapiens, UniProt P19099).
T2 construct: expressed in transfected cells
T2 sequence (P19099 25-503): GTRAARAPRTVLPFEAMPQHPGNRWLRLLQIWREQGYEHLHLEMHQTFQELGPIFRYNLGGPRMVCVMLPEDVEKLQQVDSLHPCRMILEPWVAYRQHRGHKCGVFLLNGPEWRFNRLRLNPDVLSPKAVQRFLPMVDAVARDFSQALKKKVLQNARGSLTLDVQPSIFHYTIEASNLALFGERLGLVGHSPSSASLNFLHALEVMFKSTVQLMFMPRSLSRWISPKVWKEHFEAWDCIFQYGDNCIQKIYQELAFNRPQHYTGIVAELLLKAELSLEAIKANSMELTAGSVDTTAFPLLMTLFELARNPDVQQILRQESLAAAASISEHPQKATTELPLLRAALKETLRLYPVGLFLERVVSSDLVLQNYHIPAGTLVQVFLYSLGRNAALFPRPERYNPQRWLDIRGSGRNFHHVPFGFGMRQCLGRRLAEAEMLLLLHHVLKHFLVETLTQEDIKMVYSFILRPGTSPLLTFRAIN
The assay is described as follows: Inhibition of hCYP11B2 in transfected V79 cells. It is filed as cell-based. The note with it: hamster V79 cells expressing human CYP11B2; substrate 11-deoxycorticosterone 200 nM. An outline of the steps:
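The substrate (200 nM, 30 min) was added after a 2 hour compound pre-incubation in lentivirus-transduced V79 cells stably expressing human CYP11B2 plus rat NADPH-P450 reductase.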

As for `O=C1Cc2cc(-c3cncc4c3OCCN4C(=O)C3CN(Cc4cccc(F)c4)C3)ccc2N1` [O89, 5-(4-(1-(3-Fluorobenzyl)azetidine-3-carbonyl)-3,4-dihydro-2H-pyrido[4,3-b][1,4]oxazin-8-yl)indolin-2-one], the IC50 against human CYP11B1 amounted to 2550 nM; on human CYP11B2, 15.6 nM.
Taken in the same sequence, the figures for `O=C(C1CN(Cc2cccc(F)c2)C1)N1CCOc2c(-c3ccc4nccn4c3)cncc21` [O90, (1-(3-Fluorobenzyl)azetidin-3-yl)(8-(imidazo[1,2-a]pyridin-6-yl)-2,3-dihydro-4H-pyrido[4,3-b][1,4]oxazin-4-yl)methanone] were 3260 nM and 48.8 nM.
Taken in the same sequence, the figures for `O=C(C1CN(Cc2cccc(F)c2)C1)N1CCOc2c(-c3cc4ccc(Cl)cc4[nH]3)cncc21` [O91, (8-(6-Chloro-1H-indol-2-yl)-2,3-dihydro-4H-pyrido[4,3-b][1,4]oxazin-4-yl)(1-(3-fluorobenzyl)azetidin-3-yl)methanone] were 4160 nM and 92 nM.
On the same counts, the results for `N#Cc1ccc2cc(-c3cncc4c3OCCN4C(=O)C3CN(Cc4cccc(F)c4)C3)[nH]c2c1` [O92, 2-(4-(1-(3-Fluorobenzyl)azetidine-3-carbonyl)-3,4-dihydro-2H-pyrido[4,3-b][1,4]oxazin-8-yl)-1H-indole-6-carbonitrile] are 4440 nM and 28.4 nM.
Take `O=C(C1CN(Cc2cccc(F)c2)C1)N1CCOc2c(-c3cc4ccc(F)cc4[nH]3)cncc21` [O93, (8-(6-Fluoro-1H-indol-2-yl)-2,3-dihydro-4H-pyrido[4,3-b][1,4]oxazin-4-yl)(1-(3-fluorobenzyl)azetidin-3-yl)methanone]: the values for the IC50 against human CYP11B1 and against human CYP11B2 were 4170 nM and 90 nM, respectively.
As for `N#Cc1ccc2[nH]c(-c3cncc4c3OCCN4C(=O)C3CN(Cc4cccc(F)c4)C3)cc2c1` [O94, 2-(4-(1-(3-Fluorobenzyl)azetidine-3-carbonyl)-3,4-dihydro-2H-pyrido[4,3-b][1,4]oxazin-8-yl)-1H-indole-5-carbonitrile], the IC50 against human CYP11B1 was 381 nM; at human CYP11B2, 4.7 nM.
As to `O=C(C1CN(Cc2cccc(F)c2)C1)N1CCOc2c(-c3cc4cc(Cl)ccc4o3)cncc21` [O95, (8-(5-Chlorobenzofuran-2-yl)-2,3-dihydro-4H-pyrido[4,3-b][1,4]oxazin-4-yl)(1-(3-fluorobenzyl)azetidin-3-yl)methanone], the IC50 is 4590 nM against human CYP11B1 and 41 nM against human CYP11B2.
On the same counts, the results for `N#Cc1ccc2oc(-c3cncc4c3OCCN4C(=O)C3CN(Cc4cccc(F)c4)C3)cc2c1` [O96, 2-(4-(1-(3-Fluorobenzyl)azetidine-3-carbonyl)-3,4-dihydro-2H-pyrido[4,3-b][1,4]oxazin-8-yl)benzofuran-5-carbonitrile] are 1340 nM and 5.2 nM.
Taken in the same sequence, the figures for `N#CN1CC=C(c2cncc3c2OCCN3C(=O)C2CN(Cc3cccc(F)c3)C2)CC1` [O97, 4-(4-(1-(3-Fluorobenzyl)azetidine-3-carbonyl)-3,4-dihydro-2H-pyrido[4,3-b][1,4]oxazin-8-yl)-3,6-dihydropyridine-1 (2H)-carbonitrile] were 219 nM and 35 nM.
As to `N#CN1CCN(c2cncc3c2OCCN3C(=O)C2CN(Cc3cccc(F)c3)C2)CC1` [O98, 4-(4-(1-(3-Fluorobenzyl)azetidine-3-carbonyl)-3,4-dihydro-2H-pyrido[4,3-b][1,4]oxazin-8-yl)piperazine-1-carbonitrile], the figures for the IC50 against human CYP11B1 and against human CYP11B2 were 677 nM and 46 nM, respectively.
With `N#CN1CCN(c2cncc3c2OCCN3C(=O)C2CN(Cc3cccc(F)c3)C2)C(=O)C1` [O99, 4-(4-(1-(3-Fluorobenzyl)azetidine-3-carbonyl)-3,4-dihydro-2H-pyrido[4,3-b][1,4]oxazin-8-yl)-3-oxopiperazine-1-carbonitrile], the IC50 on human CYP11B1 was found to be 652 nM; against human CYP11B2, 39 nM.
On the same counts, the results for `COc1cccc(C2=NOC(S(=O)(=O)N3CCOc4c(-c5ccc(C#N)cc5)cncc43)C2)c1` (stereo not drawn) [O100, 4-(4-((3-(3-Methoxyphenyl)-4,5-dihydroisoxazol-5-yl)sulfonyl)-3,4-dihydro-2H-pyrido[4,3-b][1,4]oxazin-8-yl)benzonitrile] are 102 nM and 0.3 nM.
On the same counts, the results for `N#Cc1ccc(-c2cncc3c2OCCN3S(=O)(=O)C2CC(c3cccc(C#N)c3)=NO2)cc1` (stereo not drawn) [O101, 3-(5-((8-(4-Cyanophenyl)-2,3-dihydro-4H-pyrido[4,3-b][1,4]oxazin-4-yl)sulfonyl)-4,5-dihydroisoxazol-3-yl)benzonitrile] are 57 nM and 0.4 nM.
On the same counts, the results for `N#Cc1ccc(-c2cncc3c2OCCN3S(=O)(=O)C2CC(c3ccccc3)=NO2)cc1` (stereo not drawn) [O102, 4-(4-((3-Phenyl-4,5-dihydroisoxazol-5-yl)sulfonyl)-3,4-dihydro-2H-pyrido[4,3-b][1,4]oxazin-8-yl)benzonitrile] are 62 nM and 0.3 nM.
On to `N#Cc1ccc(-c2cncc3c2OCCN3S(=O)(=O)C2CC(Cc3ccccc3)=NO2)cc1` (stereo not drawn) [O103, 4-(4-((3-benzyl-4,5-dihydroisoxazol-5-yl)sulfonyl)-3,4-dihydro-2H-pyrido[4,3-b][1,4]oxazin-8-yl)benzonitrile], for which the IC50 at human CYP11B1 worked out at 79 nM; at human CYP11B2, 0.5 nM.
For `N#Cc1ccc(-c2cncc3c2OCCN3C(=O)[C@H]2CCN(Cc3cccc(F)c3)C2)cc1` [O104, (S)-4-(4-(1-(3-Fluorobenzyl)pyrrolidine-3-carbonyl)-3,4-dihydro-2H-pyrido[4,3-b][1,4]oxazin-8-yl)benzonitrile], the IC50 was 468 nM against human CYP11B1 and 4.1 nM against human CYP11B2.
On the same counts, the results for `N#Cc1ccc(-c2cncc3c2OCCN3C(=O)[C@@H]2CCN(Cc3cccc(F)c3)C2)cc1` [O105, (R)-4-(4-(1-(3-Fluorobenzyl)pyrrolidine-3-carbonyl)-3,4-dihydro-2H-pyrido[4,3-b][1,4]oxazin-8-yl)benzonitrile] are 650 nM and 29 nM.
Turning to `Clc1ccc2oc(-c3cncc4c3OCCN4)cc2c1` [O108, 8-(5-Chlorobenzofuran-2-yl)-3,4-dihydro-2H-pyrido[4,3-b][1,4]oxazine], the figures for the IC50 against human CYP11B1 and against human CYP11B2 were 359 nM and 7.9 nM, respectively.
On the same counts, the results for `N#Cc1ccc2oc(-c3cncc4c3OCCN4)cc2c1` [O109, 2-(3,4-Dihydro-2H-pyrido[4,3-b][1,4]oxazin-8-yl)benzofuran-5-carbonitrile] are 376 nM and 4.8 nM.
Regarding `N#Cc1ccc(-c2cncc3c2OCCN3S(=O)(=O)C2CN(C(=O)c3cccc(C#N)c3)C2)cc1` [O110, 4-(4-((1-(3-Cyanobenzoyl)azetidin-3-yl)sulfonyl)-3,4-dihydro-2H-pyrido[4,3-b][1,4]oxazin-8-yl)benzonitrile], the figures for the IC50 against human CYP11B1 and at human CYP11B2 were 484 nM and 19.3 nM, respectively.
Taken in the same sequence, the figures for `N#Cc1ccc(C(=O)N2CC(S(=O)(=O)N3CCOc4c(-c5ccc(C#N)cc5)cncc43)C2)cc1` [O111, 4-(4-((1-(4-Cyanobenzoyl)azetidin-3-yl)sulfonyl)-3,4-dihydro-2H-pyrido[4,3-b][1,4]oxazin-8-yl)benzonitrile] were 216 nM and 23.2 nM.
Taken in the same sequence, the figures for `COc1cccc(C(=O)N2CC(S(=O)(=O)N3CCOc4c(-c5ccc(C#N)cc5)cncc43)C2)c1` [O112, 4-(4-((1-(3-Methoxybenzoyl)azetidin-3-yl)sulfonyl)-3,4-dihydro-2H-pyrido[4,3-b][1,4]oxazin-8-yl)benzonitrile] were 169 nM and 27 nM.
Taken in the same sequence, the figures for `COc1ccc(C(=O)N2CC(S(=O)(=O)N3CCOc4c(-c5ccc(C#N)cc5)cncc43)C2)cc1` [O113, 4-(4-((1-(4-Methoxybenzoyl)azetidin-3-yl)sulfonyl)-3,4-dihydro-2H-pyrido[4,3-b][1,4]oxazin-8-yl)benzonitrile] were 97 nM and 3 nM.
For the molecule `N#Cc1ccc(-c2cncc3c2OCCN3S(=O)(=O)C2CN(S(=O)(=O)c3ccc(C#N)cc3)C2)cc1` [O114, 4-((3-((8-(4-Cyanophenyl)-2,3-dihydro-4H-pyrido[4,3-b][1,4]oxazin-4-yl)sulfonyl)azetidin-1-yl)sulfonyl)benzonitrile], the IC50 against human CYP11B1 turned out to be 69 nM; against human CYP11B2, 7 nM.
